Measurements taken from the supplement of paper PMC5770543.
± gives the standard deviation.

How the values were obtained:
[1] = test system: Plasmodium falciparum 3D7; assay: EC50 growth inhibition (60 h, SYBR Green); settings: stage: ring-stage start
[2] = test system: Toxoplasma gondii RH tachyzoites; assay: % growth inhibition vs DMSO (48 h luciferase); higher = more inhibition; settings: 10 µM
[3] = test system: Plasmodium falciparum 3D7; assay: R50 (50% reduction of ring formation, egress/invasion); higher = less potent
Protocol: (§1)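 P. falciparum asexual blood stages. EC50: sorbitol-synchronized 3D7 rings were treated with 2-fold dilutions from 10 µM for 60 h, with parasitemia read by SYBR Green I fluorescence; EC50 listed as 10 means not determined and is left out. Stage transition screen: ~40-42 hpi schizonts were treated at 1, 3 and 10 µM; new rings were counted by Hoechst flow cytometry and % inhibition is relative to DMSO controls (mean of 3 experiments). R50: concentration giving 50% reduction of new ring formation versus DMSO in 3D7, K1 and KH004-003, from flow cytometry after 12-20 h treatment of schizonts.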

[4] = test system: Plasmodium falciparum K1 (chloroquine resistant); assay: as above
Protocol: as §1

[5] = test system: Plasmodium falciparum KH004-003 (artemisinin resistant); assay: as above
Protocol: as §1

[6] = test system: Plasmodium falciparum 3D7; assay: % inhibition of schizont-to-ring transition vs DMSO; higher = more inhibition
Method in brief: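 Schizont-to-ring transition inhibition is the formation of new rings relative to vehicle controls. Tightly synchronised P. falciparum schizonts at about 40–42 hours post-invasion (1% parasitemia, 2.5% hematocrit, AlbuMAX-supplemented RPMI) were treated with compound at 1, 3 or 10 µM, alongside vehicle and positive controls. After glutaraldehyde fixation, Triton permeabilisation and Hoechst 33342 staining, at least 100,000 events were counted by flow cytometry, and values are the mean of three experiments.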

[7] = test system: Toxoplasma gondii RH tachyzoites; assay: median egress time after A23187 ionophore; higher = stronger egress inhibition; settings: 10 µM; pretreatment time: 24 h
Protocol: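 T. gondii RH tachyzoites expressing firefly luciferase were grown in HFF monolayers for 48 h with compound. % growth inhibition at 10 µM and EC50 (2-fold dilutions from 10 µM) were read by luminescence relative to 1% DMSO; EC50 listed as 10 (not determined, <80% inhibition) is left out. Plaque assays: 50 tachyzoites per well with 10 µM compound for 8-10 days, giving plaque count and area by crystal violet/ImageJ. Egress: median time to egress after 1 µM A23187 ionophore following 24 h of 10 µM compound (DMSO ~1.8 min; >10 = no egress within 10 min).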

[8] = test system: Toxoplasma gondii RH tachyzoites; assay: plaque count per well; higher = less inhibition; extreme values may be limits of the assay; settings: 10 µM; 8-10 days
Method in brief: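 Compound at 10 µM was preseeded onto confluent HFF monolayers in six-well plates, which then received fifty T. gondii RH tachyzoites per well and were left undisturbed for 8 to 10 days. Fixation with methanol and staining with crystal violet followed, and ImageJ was used to image and count plaques in each well. These counts serve as a readout of delayed-death inhibition of parasite growth.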

[9] = molecular target: Toxoplasma gondii RH tachyzoites; assay: EC50 growth inhibition (48 h luciferase)
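For % growth inhibition vs DMSO (48 h luciferase) in this document: tested in triplicate wells of 96-well plates on confluent HFF monolayers, with 1% DMSO wells as negative control in four replicates.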

| SMILES | EC50 growth inhibition [1] [µM] | % growth inhibition [2] [%] | R50 [3] [µM] | R50 [4] [µM] | R50 [5] [µM] | % inhibition of schizont-to-ring transition ([6]; 1 µM) [%] | % inhibition of schizont-to-ring transition ([6]; 3 µM) [%] | % inhibition of schizont-to-ring transition ([6]; 10 µM) [%] | median egress time [7] [min] | plaque count per well [8] | EC50 growth inhibition [9] [µM] |
| --- | --- | --- | --- | --- | --- | --- | --- | --- | --- | --- | --- |
| COc1ccc(CCn2c(=N)c(C(=O)NCc3cccnc3)cc3c(=O)n4cccc(C)c4nc32)cc1 | 0.353 | 75.9 ± 1.6 | 2.26 | 2.1 | 0.771 | 40.3 | 65.1 | 66.9 | 2.13 | – | – |
| OC(Cn1nnc2ccccc21)Cn1c2ccc(Br)cc2c2cc(Br)ccc21 (stereo not drawn) | – | 22.8 ± 3.4 | 2.87 | 1.23 | 0.102 | < 0 | 30.6 | 45.7 | – | – | – |
| CCOc1ccccc1CNC(=O)C1c2ccccc2C(=O)N(CC(C)C)C1c1cccs1 (stereo not drawn) | 0.649 | 70.7 ± 11 | 2.06 | 2.11 | 2.32 | 38.3 | 65.3 | 74.8 | – | – | – |
| COc1ccc(C2c3ccc4ccccc4c3Oc3ncn(CCCn4ccnc4)c(=N)c32)cc1OC (stereo not drawn) | 0.383 | 65.4 ± 9 | 2.5 | 2.92 | 2.4 | 40 | 73.6 | 75.6 | 2.27 | – | – |
| CCOC(=O)c1c(NC(=O)c2ccccc2)sc2c(O)c(CN(CC)CC)ccc12 | 0.00857 | 65.8 ± 12 | 0.186 | 0.103 | 0.138 | 57.2 | 69.3 | 71.9 | 2.13 | – | – |
| CC(=O)NCCc1nc2ccccc2n1Cc1ccc(C(C)C)cc1 | 0.9 | < 0 | 3.03 | 3.69 | 3.03 | 37.3 | 61 | 78.1 | 5.47 | 33 | – |
| CCN(Cc1ccccc1)C1CCN(Cc2cc(Br)ccc2O)CC1 | 0.31 | < 0 | 0.998 | 0.491 | 0.532 | 59.3 | 74.2 | 76.9 | > 10 | 24 | – |
| COc1ccccc1C(=O)ON=C(N)Cc1cccc2ccccc12 | 0.244 | 73.6 ± 2.5 | 3.9 | 3.93 | 1.25 | 12 | 43.7 | 78.8 | – | – | – |
| Cc1cc(Nc2ccc(OCc3ccccc3)cc2)nc2cc(O)ccc12 | 0.195 | 100.3 ± 0.21 | 0.97 | 0.291 | 0.702 | 64.2 | 71.9 | 69.8 | – | – | 2.85 |
| COc1cc(OC)c(N(C)C(=O)c2cc3c(s2)-c2ccccc2S(=O)(=O)C3)cc1Cl | 1.19 | < 0 | 0.868 | 0.933 | 0.352 | 55.9 | 60 | 66.3 | 8.4 | 33 | – |
| CCOC(=O)c1cn(CC)c2cc(N3CCCCC3)c(F)cc2c1=O | 0.67 | 67.3 ± 6.7 | 0.738 | 1.48 | 0.155 | 45.5 | 61.4 | 65.5 | – | – | – |
| CCOc1c(Cl)cc(CNC(C)C(O)c2ccccc2)cc1OC (stereo not drawn) | 0.926 | 18.8 ± 18 | 3.32 | 1.56 | 2.58 | 2.61 | 19.5 | 72.7 | 3.47 | 0 | – |
| Cc1cc(NC(=O)C2c3ccccc3C(=O)N(CC(C)C)C2c2cccs2)no1 (stereo not drawn) | 0.064 | < 0 | 0.363 | 0.307 | 0.43 | 76.6 | 76.8 | 78.6 | 5.73 | 29 | – |
| COc1cccc(C2(C)Nc3ccccc3-c3nc4ccccc4n32)c1 (stereo not drawn) | 0.217 | 12.6 ± 12 | 1.13 | 1.17 | 0.715 | 66 | 81.1 | 81.2 | > 10 | 21 | – |
| O=C(NC1CCN(Cc2ccccc2)CC1)c1cc(C(=O)NC2CCN(Cc3ccccc3)CC2)cc(C(=O)NC2CCN(Cc3ccccc3)CC2)c1 | 1.67 | 18.9 ± 16 | 3.38 | 0.179 | 1.42 | 25.8 | 30.4 | 53.7 | 2.33 | 35 | – |
| CC1(c2ccccc2)Nc2ccccc2-c2nc3ccccc3n21 (stereo not drawn) | 0.194 | 24.3 ± 8 | 0.768 | 0.955 | 0.275 | 56.1 | 77.5 | 79 | 4.13 | – | – |
| COc1cccc(-c2nn(C)c3sc(C(=O)NCCN4CCN(c5ccccc5F)CC4)cc23)c1 | 4.2 | 1.85 ± 3.2 | – | – | – | 12.9 | 36.3 | 60.8 | 2.93 | 31 | – |
